The values that follow are results of earlier work, collected in patent US20040157796A1 (priority 2002, published 2004).

The conditions of data set [1]: background statement.
The next data set addresses COX-1 (Homo sapiens, UniProt P23219). The settings on record: background statement.

COX-1, sequence (P23219 24-599): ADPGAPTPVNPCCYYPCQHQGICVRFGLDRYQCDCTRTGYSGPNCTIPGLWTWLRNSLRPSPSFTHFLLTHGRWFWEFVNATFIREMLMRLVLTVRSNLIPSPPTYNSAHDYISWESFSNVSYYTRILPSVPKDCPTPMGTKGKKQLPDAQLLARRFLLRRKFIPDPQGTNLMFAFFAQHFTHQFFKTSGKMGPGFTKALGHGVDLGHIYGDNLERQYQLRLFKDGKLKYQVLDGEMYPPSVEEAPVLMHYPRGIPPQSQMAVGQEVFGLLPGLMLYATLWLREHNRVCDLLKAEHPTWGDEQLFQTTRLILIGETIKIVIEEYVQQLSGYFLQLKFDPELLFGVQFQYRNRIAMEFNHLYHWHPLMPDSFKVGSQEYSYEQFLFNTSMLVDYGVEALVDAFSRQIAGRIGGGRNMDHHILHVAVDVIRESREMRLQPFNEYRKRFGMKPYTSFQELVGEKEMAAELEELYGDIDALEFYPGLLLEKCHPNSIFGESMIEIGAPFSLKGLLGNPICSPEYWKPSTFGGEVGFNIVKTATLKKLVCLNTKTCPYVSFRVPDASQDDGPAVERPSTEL

For the molecule `Cc1onc(-c2ccccc2)c1-c1ccc(S(N)(=O)=O)cc1` [valdecoxib], the solubility in water entry in data set [1] was “extremely low solubility”. For the same molecule, the “in vitro inhibitory activity against COX-1” value at COX-1 was “weak inhibitor”.
Turning to `CCC(=O)NS(=O)(=O)c1ccc(-c2c(-c3ccccc3)noc2C)cc1` [Parecoxib, N-[[4-(5-methyl-3-phenylisoxazol-4-yl)phenyl]sulfonyl]propanamide], the solubility in water entry in data set [1] is on record as “much more soluble”. The “in vitro inhibitory activity against COX-1” value on COX-1 is “weak in vitro inhibitory activity”.
